In patent US10828301B2, “2,4-pyrimidinediamine compounds and their uses” (Rigel Pharmaceuticals, Inc, priority 2002, dated 2020):

Assays:
Assay type in all cases: cell-based
[1] = system: cultured human mast cells (CHMC); assay: CHMC high cell density IgE activation: degranulation (hexos, tryptase, histamine), leukotriene (LTC4) and cytokine (TNFalpha, IL-13) assays; settings: anti-IgE activation
Method: After sensitizing, cells are counted, pelleted (1000 rpm, 5-10 minutes), and resuspended at 1-2×10^6 cells/ml in MT buffer. Add 100 ul of cell suspension to each well and 100 ul of compound dilutions. The final vehicle concentration is 0.5% DMSO. Incubate at 37° C. (5% CO2) for 1 hour. After 1 hour of compound treatment, stimulate cells with 6× anti-IgE. Mix wells with the cells and allow plates to incubate at 37° C. (5% CO2) for one hour. After 1 hour incubation, pellet cells (10 minutes, 1000 RPM) and collect 200 ul per well of the supernatant, being careful not to disturb pellet. Place the supernatant plate on ice. During the 7-hour step (see next) perform tryptase assay on supernatant that had been diluted 1:500. Resuspend cell pellet in 240 ul of CM media containing 0.5% DMSO and corresponding concentration of compound. Incubate CHMC cells for 7 hours at 37° C. (5% CO2). After incubation, pellet cells (1000 RPM, 10 minutes) and collect 225 ul per well and place in −80° C. until ready to perform ELISAS. ELISAS are performed on appropriately diluted samples (determined empirically for each donor cell population so that the sample measurement falls within the standard curve) following the supplier's instructions.

[2] = system: cultured human mast cells (CHMC); assay: CHMC low cell density IgE activation: tryptase and LTC4 assays; settings: Homo sapiens, Mast cell
Outline: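 Degranulation measured after 30 min anti-IgE challenge at 37° C of CHMC plated at 1000-1500 cells/well following 1 h preincubation. Readouts: LTC4 by ELISA on donor-specific diluted supernatants, and tryptase activity from a 30 min room-temperature substrate reaction.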

[3] = system: cultured human mast cells (CHMC); assay: CHMC low cell density ionomycin activation: tryptase assay; settings: Homo sapiens, Mast cell, read-out: CHMC Ionomycin Tryptase
[4] = IL-13, read-out: CHMC high density IL-13
[5] = LTC4, read-out: CHMC high density LTC4
[6] = TNF-alpha, read-out: CHMC high density TNF-alpha
[7] = hexosaminidase release, read-out: CHMC high density hexos
[8] = histamine release, read-out: CHMC high density histamine
[9] = tryptase release, read-out: CHMC high density tryptase
[10] = Low Density CHMC, anti-IgE activation, tryptase readout, read-out: CHMC anti-IgE Tryptase
[11] = Low Density CHMC, ionomycin activation, tryptase readout
[12] = Low Density CHMC, anti-IgE activation, LTC4 readout, read-out: CHMC anti-IgE LTC4

Row | SMILES | IC50 [2, 10] [nM] | IC50 [3, 11] [nM] | other results
1 | Cc1cc(Nc2ncc(F)c(Nc3cc(C)c(O)c(Cl)c3)n2)cc(Cl)c1O [Compound R940216, N2,N4-Bis-(3-chloro-4-hydroxy-5-methylphenyl)-5-fluoro-2,4-pyrimidinediamine] | 268 | 7300 | IC50 [1, 4]: 3010 nM; IC50 [1, 5]: < 1100 nM; IC50 [1, 6]: 3190 nM; IC50 [1, 7]: < 1100 nM; IC50 [1, 8]: 1180 nM; IC50 [1, 9]: < 1100 nM
2 | COC(=O)c1cc2cc(Nc3ncc(F)c(Nc4cccc(O)c4)n3)ccc2o1 [Compound R926614, 5-Fluoro-N4-(3-hydroxyphenyl)-N2-(2-methoxycarbonylbenzofuran-5-yl)-2,4-pyrimidinediamine] | 228 | > 10000 | IC50 [1, 4]: 6440 nM; IC50 [1, 6]: > 10000 nM; IC50 [1, 7]: > 10000 nM; IC50 [1, 9]: > 10000 nM
3 | CNC(=O)c1cc2cc(Nc3ncc(F)c(Nc4ccc(C(C)(C)C)cc4)n3)ccc2o1 [Compound R926494, N4-(4-tert-Butylphenyl)-5-fluoro-N2-[2-(N-methylamino)carbonylbenzofuran-5-yl]-2,4-pyrimidinediamine] | 313 | > 10000 | IC50 [1, 5]: 326 nM; IC50 [1, 6]: > 10000 nM; IC50 [1, 7]: 640 nM; IC50 [1, 8]: > 10000 nM; IC50 [1, 9]: > 2000 nM; IC50 [2, 12]: 78 nM
4 | COC(=O)C1Cc2cc(Nc3ncc(F)c(Nc4ccc(OC(C)C)cc4)n3)ccc2O1 (centres unmarked) [Compound R926706, 5-Fluoro-N2-(2,3-dihydro-2-(methoxycarbonyl)benzofuran-5-yl)-N4-(4-isopropoxyphenyl)-2,4-pyrimidinediamine] | 70 | 2410 | IC50 [1, 5]: 1490 nM; IC50 [1, 6]: > 10000 nM; IC50 [1, 7]: > 2000 nM; IC50 [1, 8]: > 10000 nM; IC50 [1, 9]: > 10000 nM; IC50 [2, 12]: 78 nM
5 | OCc1cc2cc(Nc3ncc(F)c(Nc4cccc(O)c4)n3)ccc2[nH]1 [Compound R926700, 5-Fluoro-N4-(3-hydroxyphenyl)-N2-[2-(hydroxymethyl)-(1H)-indol-5-yl]-2,4-pyrimidinediamine] | – | > 10000 | IC50 [1, 4]: 2050 nM; IC50 [1, 5]: < 1100 nM; IC50 [1, 6]: < 1100 nM; IC50 [1, 7]: < 1100 nM; IC50 [1, 8]: < 1100 nM; IC50 [1, 9]: < 1100 nM
6 | Fc1cnc(NC(c2ccccc2)c2ccccc2)nc1NC(c1ccccc1)c1ccccc1 [Compound R935005, N2,N4-Bis(diphenylmethyl)-5-fluoro-2,4-pyrimidinediamine] | > 10000 | > 10000 | –
7 | Fc1cnc(Nc2ccc3c(c2)OCO3)nc1Nc1ccc2c(c1)OCO2 [Compound R925776, N2,N4-Bis(3,4-methylenedioxyphenyl)-5-fluoro-2,4-pyrimidinediamine] | 2100 | > 10000 | –
8 | CCOC(=O)c1cc2cccc(Nc3cc(Nc4ccc5c(c4)OCCO5)c(F)cn3)c2[nH]1 [Compound R926808, N2-(2-Ethoxycarbonylindol-7-yl)-N4-(3,4-ethylenedioxyphenyl)-5-fluoro-2,4-pyridinediamine] | 368 | > 10000 | –
9 | Oc1cccc(Nc2nc(Nc3ccc4c(c3)OCC=N4)ncc2F)c1 [Compound R908706, N2-(1,4-Benzoxazin-7-yl)-5-fluoro-N4-(3-hydroxyphenyl)-2,4-pyrimidinediamine] | 445 | > 10000 | –
10 | Fc1cc(F)cc(Nc2ncc(F)c(Nc3ccc4c(c3)OCCO4)n2)c1 [Compound R926898, N4-(3,4-Ethylenedioxyphenyl)-5-fluoro-N2-(3,5-difluorophenyl)-2,4-pyrimidinediamine] | 1100 | > 10000 | –
11 | COc1cc(Nc2ncc(F)c(Nc3ccc4c(c3)N=CCO4)n2)cc(OC)c1 [Compound R909245, N4-(1,4-Benzoxazin-6-yl)-N2-(3,5-dimethoxyphenyl)-5-fluoro-2,4-pyrimidinediamine] | 255 | 6240 | –
12 | Cc1cc(Nc2ncc(F)c(Nc3cc(C)c(O)cc3C)n2)c(C)cc1O [Compound R926623, N2,N4-Bis(2,5-dimethyl-4-hydroxyphenyl)-5-fluoro-2,4-pyrimidinediamine] | > 10000 | > 10000 | –
13 | CCOC(=O)Cc1ccc(Nc2ncc(C(F)(F)F)c(Nc3ccc(CC(=O)OCC)cc3)n2)cc1 [Compound R926663, N2,N4-Bis[4-(ethoxycarbonylmethyl)phenyl]-5-trifluoromethyl-2,4-pyrimidinediamine] | > 10000 | > 10000 | –
14 | Fc1cnc(Nc2ccc3cc[nH]c3c2)nc1Nc1ccc2cc[nH]c2c1 [Compound R926594, N2,N4-Bis(indol-6-yl)-5-fluoro-2,4-pyrimidinediamine] | > 10000 | > 10000 | –
15 | COC(=O)c1ccc(Nc2ncc(F)c(Nc3ccc(C(=O)OC)c(OC)c3)n2)cc1OC [Compound R945065, N2,N4-Bis(3-methoxy-4-methoxycarbonylphenyl)-5-fluoro-2,4-pyrimidinediamine] | 1420 | > 10000 | –
16 | CC(C)(C)c1cccc(Nc2ncc(F)c(Nc3ccc4c(c3)N=CCO4)n2)c1 [Compound R909246, N4-(1,4-Benzoxazin-6-yl)-N2-(3-tert-butylphenyl)-5-fluoro-2,4-pyrimidinediamine] | 169 | > 10000 | –
17 | Oc1cccc(Nc2ncc(F)c(Nn3cccc3)n2)c1 [Compound R935278, 5-Fluoro-N2-(3-hydroxyphenyl)-N4-(1H-pyrrol-1-yl)-2,4-pyrimidinediamine] | 4750 | > 10000 | –
18 | CCNC(=O)Oc1cccc(Nc2ncc(F)c(Nc3cccc(O)c3)n2)c1 [Compound R926928, N2-[3-[(N-Ethylamino)carbonyloxy]phenyl]-5-fluoro-N4-(3-hydroxyphenyl)-2,4-pyrimidinediamine] | – | – | IC50 ([2]; read-out: CHMC anti-IgE Tryptase): 575 nM; IC50 [3]: > 10000 nM
19 | COc1ccc(C(Nc2ncc(F)c(NC(c3ccc(OC)cc3)c3ccc(OC)cc3)n2)c2ccc(OC)cc2)cc1 [Compound R935004, N2,N4-Bis[[di-(4-methoxyphenyl)]methyl]-5-fluoro-2,4-pyrimidinediamine] | > 10000 | > 10000 | –
20 | COc1ccc(Nc2ncc(F)c(Nc3ccc(OC)c(O)c3)n2)cc1O [Compound R926339, N2,N4-Bis(3-hydroxy-4-methoxyphenyl)-5-fluoro-2,4-pyrimidinediamine] | 660 | > 10000 | –
21 | Oc1cccc(Nc2nc(NCC3COc4ccccc4O3)ncc2F)c1 (centres unmarked) [Compound R950214, N2-(2,3-Dihydro-1,4-benzodioxin-2-ylmethyl)-5-fluoro-N4-(3-hydroxyphenyl)-2,4-pyrimidinediamine] | 10000 | > 10000 | –
22 | COC(=O)c1cc(Nc2ncc(F)c(Nc3cccc(O)c3)n2)ccc1OC [Compound R940301, 5-Fluoro-N4-(3-hydroxyphenyl)-N2-(3-methyloxycarbonyl-4-methoxyphenyl)-2,4-pyrimidinediamine] | 1980 | > 10000 | –
23 | Nc1cc(Cl)cc(Nc2ccnc(Nc3cc(N)cc(Cl)c3)n2)c1 [Compound R950133, N2,N4-Bis(3-amino-5-chlorophenyl)-2,4-pyrimidinediamine] | 2200 | > 10000 | –
24 | CCOC(=O)c1nc(Nc2cccc(O)c2)nc(Nc2cccc(O)c2)c1N [Compound R925856, 5-Amino-6-ethoxycarbonyl-N2,N4-bis(3-hydroxyphenyl)-2,4-pyrimidinediamine] | 9850 | > 10000 | –
25 | CC(C)Oc1cccc(Nc2ncc(F)c(Nc3cccc(N)c3)n2)c1 [Compound R950164, N4-(3-Aminophenyl)-5-fluoro-N2-(3-isopropoxyphenyl)-2,4-pyrimidinediamine] | 1890 | > 10000 | –
26 | Oc1ccc(Nc2ncc(F)c(Nc3ccc(O)c(F)c3)n2)cc1F [Compound R926681, N2,N4-Bis(3-fluoro-4-hydroxyphenyl)-5-fluoro-2,4-pyrimidinediamine] | 775 | > 10000 | –
27 | OCCOc1cccc(Nc2ncc(F)c(Nc3ccc4oc(CO)cc4c3)n2)c1 [Compound R935178, 5-Fluoro-N2-[3-(2-hydroxyethyloxy)phenyl]-N4-(2-hydroxymethylbenzofur-5-yl)-2,4-pyrimidinediamine] | 515 | > 10000 | –
28 | Oc1ccc(Nc2ncc(F)c(Nc3ccc(O)cc3)n2)cc1 [Compound R926405, N2,N4-Bis(4-hydroxyphenyl)-5-fluoro-2,4-pyrimidinediamine] | 3400 | > 10000 | –
